Key:
[1] = system: Colon26 colorectal cancer cells; assay: Anti-tumor effect on Colon26 (Experimental Example 1), transplanted mice; type: in vivo; settings: for suppression rate: tumor weight Day 28 vs control group
Procedure: (§1) Also, in the Examples, the “suppression rate” was calculated using the following formula.
(§2) Suppression rate (%)=(1−tumor weight in the administration group/tumor weight in the control group)×100
(§3) Six-week-old BALB/cAnNCrj female mice were used for this test. The following six groups were provided: Group 1 in which physiological saline (solvent) was administered; Group 2 in which sulphostin was administered at a dose of 200 mg/kg; Group 3 in which sulphostin was administered at a dose of 50 mg/kg; Group 4 in which PT-100 was administered at a dose of 200 mg/kg; Group 5 in which PT-100 was administered at a dose of 50 mg/kg; and Group 6 in which Furtulon was administered at a dose of 30 mg/kg. The number of animals was set to eight in Group 1 (control group) and to six in each of Groups 2 to 6 (drug administration groups).
(§4) On Day 0, 2×10^5 Colon26 colorectal cancer cells were transplanted into the groin of the mice. Each of sulphostin and PT-100 was intraperitoneally administered to the mice at the above dose once in a day on Days 1 to 6, 8 to 13, 15 to 20 and 22 to 27. Furtulon was orally administered following a similar administration schedule. In use, sulphostin and PT-100 were each diluted with physiological saline to have an intended concentration; and Furtulon was suspended in 0.5% sodium carboxymethyl cellulose and then diluted with physiological saline to have an intended concentration. On Day 28, the tumor was taken out from each mouse and weighed, to thereby determine the effect of each drug. In addition, the presence or absence of side effects of each drug was confirmed by monitoring a change in body weight of the mouse in the course of the treatment and observing the degree of hair loss in the mouse after administration.

[2] = system: Colon26 colorectal cancer cells; assay: Anti-tumor effect on advanced Colon26 (Experimental Example 2), drug from Day 10; type: in vivo, mouse
Procedure: as §1, §2
as §3, with “of 50” for “of 200”, “of 3.1” for “of 50”, “to seven” for “to eight”, “to five” for “to six”
as §4, with “mice. Administration of each drug was initiated from Day 10 when the transplanted cancer cells were thought to grow.” for “mice.”, “Days 10” for “Days 1”, “to 18 and 20” for “to 6, 8”, “to 25.” for “to 13, 15 to 20 and 22 to 27.”, “mouse” for “mouse in the course of the treatment”, “mouse in the course of the treatment.” for “mouse after administration.”

[3] = system: B16-BL6 melanoma cells; assay: Anti-tumor effect on B16-BL6 (Experimental Example 3), transplanted mice; type: in vivo, mouse; settings: tumor weight Day 21 vs control group
Procedure: as §1, §2
Five-week-old C57BL/6NCrj female mice were used for this test. The following three groups were provided: Group 1 in which physiological saline (solvent) was administered; Group 2 in which sulphostin was administered at a dose of 200 mg/kg; and Group 3 in which sulphostin was administered at a dose of 50 mg/kg. The number of animals was set to seven in Group 1 (control group) and to five in each of Groups 2 and 3 (drug administration groups).
On Day 0, 2×10^5 B16-BL6 melanoma cells were transplanted into the groin of the mice. Twenty four hours after transplantation, sulphostin was intraperitoneally administered to the mice at the above respective doses once in a day on Days 1 to 5, 7 to 12, and 14 to 19. In use, sulphostin was diluted with physiological saline to have an intended concentration. On Day 21, the tumor was taken out from each mouse and weighed, to thereby determine the effect of sulphostin.

[4] = Toxicity test on mouse (Experimental Example 4); type: in vivo; settings: i.p. twice a day for 10 days; for Heart weight (Avg.) / Left kidney weight (Avg.) / Liver weight (Avg.) / Lung weight (Avg.) / Right kidney weight (Avg.) / Spleen weight (Avg.) / Thymus weight (Avg.): dissected Day 19; for change in body weight: normal mice
Procedure: Four-week-old female ICR mice (Crj: CD-1) were used for this test. The following six groups were provided: Group 1 in which physiological saline (solvent) was administered; Group 2 in which sulphostin was administered at a dose of 50 mg/kg; Group 3 in which sulphostin was administered at a dose of 25 mg/kg; Group 4 in which PT-100 was administered at a dose of 50 mg/kg; Group 5 in which PT-100 was administered at a dose of 25 mg/kg; Group 6 in which PT-100 was administered at a dose of 12.5 mg/kg; and Group 7 in which PT-100 was administered at a dose of 6.3 mg/kg. Note that each of the above doses is a dose for each administration. The number of animals was set to three in each of the groups. Each drug was intraperitoneally administered to each mouse twice in a day for 10 consecutive days, and the mouse was weighed at an appropriate time and monitored over time. On Day 19 after initiation of administration, each mouse was dissected under anesthesia and examined for remarks.

[5] = system: EL-4 mouse thymoma cells; assay: Test on cell toxicity, MTT method, EL-4; type: cell-based; settings: 48 h, EL4 thymoma, two days incubation
Procedure: (§5) The inhibitory effect of sulphostin on the proliferation of tumor cells in vitro was investigated. The culture liquid used was a 10% FCS-containing RPMI1640 medium, and incubation was performed at 37° C. in 5% CO2-air. EL-4 mouse thymoma cells, Colon-26 mouse colon cancer cells and B16-BL6 mouse melanoma cells were incubated at 1×10^4 cells/well for two days, and then the number of cells was measured by the MTT method. Specifically, MTT (0.4% and 10 μL) was added to each cell culture, followed by incubating for four hours. Further, 20% sodium dodecyl sulphate (SDS) was added thereto in an amount of 100 μL, and each plate was measured for absorbance at 570 nm and 690 nm using a microplate reader. Sulphostin was added to the wells simultaneously with the initiation of the tumor cell incubation.

[6] = system: Colon-26 mouse colon cancer cells; assay: Test on cell toxicity, MTT method, Colon-26; type: cell-based; settings: Colon 26, 48 h, Colon26 colon cancer, two days incubation
Procedure: as §5

[7] = system: B16-BL6 mouse melanoma cells; assay: Test on cell toxicity, MTT method, B16-BL6; type: cell-based; settings: 48 h, two days incubation
Procedure: as §5

[8] = 50 mg/kg intraperitoneal once a day from Day 1
[9] = 50 mg/kg intraperitoneal, six mice per group
[10] = 200 mg/kg intraperitoneal once a day from Day 1
[11] = 200 mg/kg intraperitoneal, six mice per group
[12] = 3.1 mg/kg intraperitoneal from Day 10, tumor weight Day 28 vs control group
[13] = 50 mg/kg intraperitoneal from Day 10, tumor weight Day 28 vs control group

With N[C@H]1CCCN([P@@](N)(=O)NS(=O)(=O)O)C1=O [Sulphostin, 3(S)-amino-1-((R)-amino(sulfoamino)phosphinyl)-2-piperidone] the “hair loss by continuous administration” value ([1]; 50 mg/kg intraperitoneal) was “hardly observed”, the “loss of body weight by continuous administration” value (“loss of body weight” below) ([1]; 50 mg/kg intraperitoneal) was “not observed” and the suppression rate [1, 8] was 87.8%. For the same compound, the tumor regression [1, 9] was “two out of six mice”, the “hair loss by continuous administration” value ([1]; 200 mg/kg intraperitoneal) was “hardly observed” and the “loss of body weight” value ([1]; 200 mg/kg intraperitoneal) was “not observed”. The suppression rate [1, 10] was 91.7%, the tumor regression [1, 11] was “two out of six mice” and the “suppression rate on tumor weight” value [2, 12] was 66.2%. The “suppression rate on tumor weight” value [2, 13] was 87.3%, the “loss of body weight” value ([2]; intraperitoneal from Day 10, dose not specified (groups 50 and 3.1 mg/kg)) was “not observed” and the suppression rate [3, 8] was 53.3%. For the same compound, the suppression rate [3, 10] was 51.7%, the “abnormalities during monitoring and in remarks after dissection” value ([4]; 25 mg/kg per administration) was “nor did they show any abnormalities” and the “Heart weight (Avg.)” value ([4]; 25 mg/kg per administration) was 118.3 mg. For the same compound, the “Left kidney weight (Avg.)” value ([4]; 25 mg/kg per administration) was 204.7 mg, the “Liver weight (Avg.)” value ([4]; 25 mg/kg per administration) was 1769.3 mg and the “Lung weight (Avg.)” value ([4]; 25 mg/kg per administration) was 182 mg. For the same compound, the “Right kidney weight (Avg.)” value ([4]; 25 mg/kg per administration) was 210.3 mg, the “Spleen weight (Avg.)” value ([4]; 25 mg/kg per administration) was 127.7 mg and the “Thymus weight (Avg.)” value ([4]; 25 mg/kg per administration) was 63.7 mg. For the same compound, the “change in body weight” value ([4]; 25 mg/kg per administration) was “did not decrease in body weight”, the “abnormalities during monitoring and in remarks after dissection” value ([4]; 50 mg/kg per administration) was “nor did they show any abnormalities” and the “Heart weight (Avg.)” value ([4]; 50 mg/kg per administration) was 120 mg. For the same compound, the “Left kidney weight (Avg.)” value ([4]; 50 mg/kg per administration) was 202.3 mg, the “Liver weight (Avg.)” value ([4]; 50 mg/kg per administration) was 1803.7 mg and the “Lung weight (Avg.)” value ([4]; 50 mg/kg per administration) was 165.3 mg. For the same compound, the “Right kidney weight (Avg.)” value ([4]; 50 mg/kg per administration) was 206.7 mg, the “Spleen weight (Avg.)” value ([4]; 50 mg/kg per administration) was 141.7 mg and the “Thymus weight (Avg.)” value ([4]; 50 mg/kg per administration) was 76 mg. The “change in body weight” value ([4]; 50 mg/kg per administration) was “did not decrease in body weight”, the IC50 [5] was over 100 µg/mL and the IC50 [6] was over 100 µg/mL. The IC50 [7] was over 100 µg/mL.
In the case of CC(C)[C@H](N)C(=O)N1CCC[C@H]1B(O)O [PT-100], the “hair loss by continuous administration” value ([1]; 50 mg/kg intraperitoneal) is reported as “extremely observed throughout the body”, the suppression rate [1, 8] is reported as 66.7% and the tumor regression [1, 9] is reported as “the tumor was not regressed”. For the same compound, the “hair loss by continuous administration” value ([1]; 200 mg/kg intraperitoneal) was “extremely observed throughout the body”, the “loss of body weight” value ([1]; 200 mg/kg intraperitoneal) was “considerably observed” and the suppression rate [1, 10] was 62.3%. The tumor regression [1, 11] was “the tumor was not regressed”, the “suppression rate on tumor weight” value [2, 12] was 51.5% and the “suppression rate on tumor weight” value [2, 13] was 70.8%.
In the case of C[C@H]1O[C@@H](n2cc(F)c(=O)[nH]c2=O)[C@H](O)[C@@H]1O [Furtulon, Doxifluridine], the tumor regression ([1]; 30 mg/kg oral) is reported as “the tumor was not regressed”, the suppression rate ([1]; 30 mg/kg oral once a day from Day 1) is reported as 56.9% and the suppression rate ([2]; 30 mg/kg oral from Day 10, tumor weight Day 28 vs control group) is reported as 47.0%.
